Laboratory results published in patent US10189809B2, “SGC stimulators” (Ironwood Pharmaceuticals, Inc., priority 2010, dated 2019).
pEC50: −log10 of the molar value. Where two headings read alike, the source gives them in different places.

Key:
[1] = target: soluble guanylate cyclase (sGC) (Homo sapiens (Human), UniProt Q02108+Q02153); test: sGC-HEK-cGMP assay run with SNP incubation (HEK WC assay); type: cell-based; conditions: for pEC50: in the presence of 10 uM SNP; for Emax at 10 µM: read-out: HEK WC Assay (% Emax at 10 uM/with 10 uM SNP); for Emax at 30 µM: read-out: HEK WC Assay (% Emax at 30 uM/with 10 uM SNP)
Protocol: Human embryonic kidney cells (HEK293), endogenously expressing soluble guanylate cyclase (sGC), were used to evaluate the activity of test compounds. Compounds stimulating the sGC receptor should cause an increase in the intracellular concentration of cGMP. HEK 293 cells were seeded in Dulbecco's Modification of Eagle's Medium supplemented with fetal bovine serum (10% final) and L-glutamine (2 mM final) in a 200 μL volume at a density of 1×10^5 cells/well in a poly-D-lysine coated 96 well flat bottom plate and grown overnight at 37° C. Medium was aspirated and cells were washed with 1× Hank's Buffered Saline Salt Solution (200 μL). Cells were then incubated for 15 minutes at 37° C. with 0.5 mM 3-isobutyl-1-methylxanthine (200 μL). Test article and sodium nitroprusside were then added to the assay mixture (2 μL each) and incubated at 37° C. for 10 minutes. After the 10 minute incubation, the assay mixture was aspirated and 0.1M HCl (200 μL) was added to the cells. The plate was incubated at 4° C. for 30 minutes in the 0.1M HCl to stop the reaction and lysed the cells. The plates were then centrifuged at 1,200 g for 5 minutes at room temperature. Supernatants were collected and transferred to a new flat bottom 96 well plate for analysis. Vehicle controls were carried out using DMSO (1%). […] Samples were diluted with an equal volume of 1 M Ammonium Acetate (pH 7) to neutralize samples for better chromatography. […] EC50 values were calculated from concentration-response curves generated with GraphPad Prism Software.

Thoracic aortic rings = test: Alternative thoracic aortic rings assay (Example 19b; resting tension as 100% inhibition); set-up: species or system rat; conditions: Rattus norvegicus; for inhibition at 1 µM: read-out: Percent Relaxation at 1 μM; for inhibition at 3 µM: read-out: Percent Relaxation at 3 μM; for inhibition at 10 µM: read-out: Percent Relaxation at 10 μM; for pEC50: read-out: Aortic Ring EC50
Protocol: Thoracic aortic rings were dissected from anesthetized (isoflurane) male Sprague-Dawley rats weighing 275-299 g. Tissues were immediately transferred to ice-cold Krebs-Henseleit solution, which had been aerated with 95% O2 and 5% CO2 for 30 minutes. Following removal of connective tissue, aortic sections were cut into 4 rings (˜2 mm each) and suspended on 2 L-shaped hooks, with one hook fixed at the bottom of the tissue bath (Schuler Organ Bath, Harvard Apparatus) and the other connected to a force transducer (F30 Force Transducer, Harvard Apparatus). Baths contained Krebs Henseleit solution (10 mL) heated to 37° C. and aerated with 95% O2 and 5% CO2. Rings were brought to an initial tension of 0.3-0.5 g and gradually raised to a resting tension of 1.0 g over 60 minutes. Rings were rinsed with Krebs Henseleit solution (heated to 37° C. and aerated with 95% O2 and 5% CO2) at 15 minute intervals until a stable baseline was obtained. Rings were considered to be stable after a resting tension of 1.0 g was maintained (for approximately 10 minutes) without need for adjustment. Rings were then contracted with 100 ng/mL phenylephrine by adding 100 uL of a 10 μg/mL phenylephrine stock solution. Tissues achieving a stable contraction were then treated in a cumulative, dose dependent manner with test compounds prepared in dimethylsulfoxide (DMSO). In some cases, tissues were rinsed three times over a 5 minute period with Krebs-Heinseleit's solution (heated to 37° C. and aerated with 95% O2 and 5% CO2), allowed to stabilize at baseline, and then used for characterization of other test articles or DMSO effects. All data were collected using the HSE-ACAD software provided by Harvard Apparatus. […] EC50 values were calculated from concentration-response curves generated with GraphPad Prism Software.

[2] = target: Human soluble guanylate cyclase enzyme (hsGC) (Homo sapiens (Human), UniProt Q02108+Q02153); test: Purified human sGC enzyme activity assay; type: biochemical
Protocol: Human soluble guanylate cyclase enzyme (hsGC) obtained from Enzo Inc. (P/N: ALX-201-177) was used to evaluate the activity of test compounds. The assay reactions contained 0.1 M Tris (pH 8.0), 0.5 mg/mL BSA (pH 8.0), 2 mM DTT, 2 mM MgCl2, 300 μM GTP, 1 mM 3-isobutyl-1-methylxanthine (IBMX) and 5 ng human soluble guanylate cyclase enzyme. Test compounds in DMSO were then added (2 μL, 10 or 30 μM final concentration) and incubated (200 μL, 96-well plate format) at 37° C. for 30 minutes. The controls were carried out using 2 μL DMSO. After the 30 minute incubation, the reaction was stopped with the addition of 200 μL of cold methanol. The plate was then centrifuged at 3,200 rpm for 10 minutes at room temperature. Supernatants (200 μL) were collected and transferred to a new 96 well plate for analysis.
An 8 point cGMP (Sigma-Aldrich P/N: G6129) standard curve was prepared in assay buffer ranging from 0.156-20 μM. Samples for the cGMP standard curve were then diluted with an equal volume of methanol resulting in final cGMP concentrations of 0.078-10 μM.
The cGMP standard curve was generated using GraphPad Prism Software.
Calculations: Specific Activity was determined by the amount of cGMP formed (nmoles) per mg of sGC per min. Enzyme “fold-change” was calculated by dividing Specific Activity for test compounds by Specific Activity of DMSO controls.

[3] = read-out: HEK WC Assay (% Emax at 10 μM with 10 uM SNP)
[4] = read-out: HEK WC Assay (% Emax at 30 μM with 10 uM SNP)

Sequence of Human soluble guanylate cyclase enzyme (hsGC) (Q02153 whole entry): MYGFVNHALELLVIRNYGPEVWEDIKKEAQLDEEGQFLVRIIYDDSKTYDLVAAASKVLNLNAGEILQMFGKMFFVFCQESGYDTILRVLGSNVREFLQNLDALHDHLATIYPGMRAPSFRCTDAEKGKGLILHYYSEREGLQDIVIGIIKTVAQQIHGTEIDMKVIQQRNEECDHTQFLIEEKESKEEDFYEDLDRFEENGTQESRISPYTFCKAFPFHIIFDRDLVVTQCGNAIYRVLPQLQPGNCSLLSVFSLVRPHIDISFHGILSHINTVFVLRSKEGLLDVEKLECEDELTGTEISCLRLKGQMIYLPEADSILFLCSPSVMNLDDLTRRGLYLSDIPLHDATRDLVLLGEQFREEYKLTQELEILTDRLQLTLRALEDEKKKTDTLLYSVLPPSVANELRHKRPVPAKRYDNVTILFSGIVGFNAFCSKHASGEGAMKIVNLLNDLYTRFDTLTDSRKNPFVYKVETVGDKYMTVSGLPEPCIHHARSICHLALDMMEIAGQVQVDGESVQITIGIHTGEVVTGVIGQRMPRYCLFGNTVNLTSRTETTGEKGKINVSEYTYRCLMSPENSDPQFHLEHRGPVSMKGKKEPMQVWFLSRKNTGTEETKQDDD
Sequence of Human soluble guanylate cyclase enzyme (hsGC) (Q02108 whole entry): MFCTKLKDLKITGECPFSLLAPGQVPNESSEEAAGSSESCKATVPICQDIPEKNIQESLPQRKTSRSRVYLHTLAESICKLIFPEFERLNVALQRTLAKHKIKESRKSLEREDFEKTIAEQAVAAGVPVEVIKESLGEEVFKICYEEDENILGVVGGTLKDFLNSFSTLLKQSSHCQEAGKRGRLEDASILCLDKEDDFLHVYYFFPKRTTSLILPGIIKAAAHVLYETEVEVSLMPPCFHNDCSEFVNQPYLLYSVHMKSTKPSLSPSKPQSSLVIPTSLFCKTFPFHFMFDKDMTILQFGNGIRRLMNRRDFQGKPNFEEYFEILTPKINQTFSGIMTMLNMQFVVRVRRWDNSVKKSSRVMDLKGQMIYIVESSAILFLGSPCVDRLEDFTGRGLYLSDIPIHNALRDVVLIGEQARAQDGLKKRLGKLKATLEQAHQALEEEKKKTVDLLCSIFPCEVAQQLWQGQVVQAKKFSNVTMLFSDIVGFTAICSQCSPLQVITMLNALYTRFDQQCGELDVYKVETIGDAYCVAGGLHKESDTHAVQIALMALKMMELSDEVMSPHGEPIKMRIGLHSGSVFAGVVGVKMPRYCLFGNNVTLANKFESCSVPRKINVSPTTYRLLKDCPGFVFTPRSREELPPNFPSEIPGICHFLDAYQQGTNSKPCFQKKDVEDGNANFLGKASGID
Sequence of soluble guanylate cyclase (sGC) (Q02153 whole entry): as the sequence (Q02153 whole entry) above
Sequence of soluble guanylate cyclase (sGC) (Q02108 whole entry): as the sequence (Q02108 whole entry) above

| Structure (SMILES) | pEC50 (Thoracic aortic rings; Table 10B) | Emax at 10 µM [1] [%] | Emax at 30 µM [1] [%] | sGC Enzyme (specific activity at 10 μM) ([2]; 10 μM compound) | sGC Enzyme (fold increase at 10 μM without SNP) ([2]; 10 μM compound) | sGC Enzyme (specific activity at 30 μM) ([2]; 30 μM compound) | sGC Enzyme (fold increase at 30 μM without SNP) ([2]; 30 μM compound) | inhibition at 1 µM (Thoracic aortic rings; Table 10B) [%] | inhibition at 3 µM (Thoracic aortic rings; Table 10B) [%] | further results |
| --- | --- | --- | --- | --- | --- | --- | --- | --- | --- | --- |
| CC1(C(=O)Nc2cnc(-c3cc(-c4ccon4)n(Cc4ccccc4F)n3)nc2N)CC1(F)F (stereo not shown) [Compound I-245] | > 5.70 | – | – | – | – | – | – | 80 to 100 | 100 to 120 | pEC50 [1]: > 4.70; Emax ([1]; read-out: HEK WC Assay (% Emax at 1 μM with 10 uM SNP)): 80 to 100%; Emax [1, 3]: 100 to 120%; Emax [1, 4]: 100 to 120%; inhibition at 10 µM (Thoracic aortic rings; Table 10B): 100 to 120% |
| Oc1nc(-c2cc(-c3ccon3)n(Cc3ccccc3F)n2)ncc1F [Compound I-161] | > 5.70 | – | – | – | – | – | – | 80 to 100 | 100 to 120 | – |
| COc1cccc(-c2cc(-c3ccccn3)n(Cc3ccccc3F)n2)n1 [Compound I-78] | – | – | – | – | – | – | – | – | – | sGC Enzyme (fold increase at 10 μM) ([2]; 10 μM compound, without the addition of SNP): A (A = no increase to <2 fold increase); sGC Enzyme (fold increase at 30 μM) ([2]; 30 μM compound, without the addition of SNP): A (A = no increase to <2 fold increase) |
| Nc1nc(-c2cc(-c3ccon3)n(Cc3ccccc3F)n2)ncc1F [Compound I-109] | – | – | – | – | – | – | – | – | – | inhibition at 1 µM (Thoracic aortic rings; Table 10A): 80 to 100%; inhibition at 3 µM (Thoracic aortic rings; Table 10A): 60 to 80%; inhibition at 10 µM (Thoracic aortic rings; Table 10A): 100 to 120%; pEC50 (Thoracic aortic rings; Table 10A): > 5.70 |
| Nc1nc(-c2cc(-c3ccon3)n(Cc3ccccc3F)n2)ncc1NC(=O)C1CC1 [Compound I-144] | > 5.70 | – | – | – | – | – | – | 80 to 100 | 100 to 120 | pEC50 [1]: > 4.70; Emax [1, 3]: 100 to 120%; Emax [1, 4]: 60 to 80% |
| Cc1cc(-c2cc(-c3ccccn3)nn2Cc2ccccc2F)c(C)s1 [Compound I-8] | – | 0 to 10 | 0 to 10 | C (C = 100 to <200) | A (A = no increase to <2 fold increase) | D (D = 200 to <500) | B (B = 2 to <5 fold increase) | – | – | – |
| Fc1ccccc1Cn1nc(-c2ncccn2)cc1-c1ccno1 [Compound I-305] | > 5.70 | – | – | – | – | – | – | 40 to 60 | 80 to 100 | inhibition at 10 µM (Thoracic aortic rings; Table 10B): 100 to 120% |
| Fc1ccccc1Cn1nc(-c2ncccn2)cc1-c1cc2ccccc2o1 [Compound I-68] | – | 0 to 10 | 0 to 10 | – | A (A = no increase to <2 fold increase) | – | A (A = no increase to <2 fold increase) | – | – | – |

More lines, main results first:

| pEC50 (Thoracic aortic rings; Table 10B) | Emax at 10 µM [1] [%] | Emax at 30 µM [1] [%] | sGC Enzyme (specific activity at 10 μM) ([2]; 10 μM compound) | sGC Enzyme (fold increase at 10 μM without SNP) ([2]; 10 μM compound) | sGC Enzyme (specific activity at 30 μM) ([2]; 30 μM compound) | sGC Enzyme (fold increase at 30 μM without SNP) ([2]; 30 μM compound) | Structure (SMILES) | inhibition at 1 µM (Thoracic aortic rings; Table 10B) [%] | inhibition at 3 µM (Thoracic aortic rings; Table 10B) [%] | further results |
| --- | --- | --- | --- | --- | --- | --- | --- | --- | --- | --- |
| – | 0 to 10 | 0 to 10 | B (B = 50 to <100) | A (A = no increase to <2 fold increase) | B (B = 50 to <100) | A (A = no increase to <2 fold increase) | CS(=O)(=O)c1ccc(-c2cc(-c3ccccn3)n(Cc3ccccc3F)n2)nc1 [Compound I-50, 2-(1-(2-fluorobenzyl)-5-(pyridin-2-yl)-1H-pyrazol-3-yl)-5-(methylsulfonyl)pyridine] | – | – | – |
| – | 0 to 10 | 0 to 10 | C (C = 100 to <200) | A (A = no increase to <2 fold increase) | C (C = 100 to <200) | B (B = 2 to <5 fold increase) | Fc1cccc(-c2cc(-c3ccccn3)nn2Cc2ccccc2F)c1 [Compound I-9] | – | – | – |
